Results from patent publication US20190388364A1, “[…] A LOCAL […]” (GRÜNENTHAL GMBH, priority 2017, published 2019).

Tested on: guinea pig skin twitch response
Assay: guinea pig skin test (skin twitch response, local anesthetic effect)
Type: in vivo
Conditions: for Stimuli per twitch response (means ± s.e.m.): max 20 stimuli; for number of animals with abrogated twitch response (max. effect): no twitch response after 20 stimuli
Method: The local anesthetic effects of Tapentadol were studied in a guinea pig skin test.
Animals: Male Pirbright White guinea pigs from a commercial breeder (ca. 400 g body weights) were used for the study. The animals were housed under standard conditions: room temperature […], rel. air changes per hour, air movement <0.2 m/sec, light/dark rhythm (06.00-18.00 h light, 18.00-06.00 h dark). The animals had access to water ad libitum and to an exclusive diet of “Herilan RM 204” (Eggersmann Company, Rinteln/Germany). Before the experiment they lived in groups of 5-8 animals in type IV Makrolone cages (Ebeco Company, Castrop-Rauxel/Germany). There were at least five days between delivery of the animals and the test day.
Tapentadol (test compound was) dissolved in 0.9% NaCl solution. Application route: intradermal application. Application volume: 0.1 ml per application site. Concentrations: 0.05/0.01/0.3/0.5%.
Application route: intradermal application. Application volume: 0.1 ml per application site. Concentrations: 0.1/0.3/1.0.
The experiments were performed according to a modified method originally described by Bülbring and Wajda (J Pharm Exp Ther 85: 78-84, 1945). After erasure of the back of the animals 0.1 ml of solutions of the test compounds or of vehicle (0.9% NaCl) were injected intradermally. There were 3 injection sites each on both flanks of the back with a craniocaudal distance between them of 1.5 cm. A twitch response of the skin musculature was provoked by contact of these sites with the tip of an injection cannula. The number of the stimuli needed to provoke a twitch response was registered. A maximum of 20 stimuli per site was allowed. […] Thereafter, solution with different concentrations of the test compounds or vehicle were injected and the skin sensitivity was evaluated at 2, 5, 10, 15 and 20 min. The different test solutions were injected on both flanks of the back into the cranial, intermediate or caudal test site in a randomized order.
Test parameter: Stimuli per twitch response.
Each concentration of the test compounds was tested at 6-7 sites. The means±s.e.m. of stimuli that were necessary to induce a twitch response were calculated for the different times after application. In addition, number of tests with a complete abolition of skin sensitivity (i.e., no twitch response after 20 stimuli) was used to calculate an EC50-value (with 95% confidence limits) according to Litchfield and Wilcoxon.

[1] = 0.1 wt.-% intradermal, 2 min after application
[2] = 0.1 wt.-% intradermal, 5 min after application
[3] = 0.1 wt.-% intradermal, 10 min after application
[4] = 0.1 wt.-% intradermal, 15 min after application
[5] = 0.1 wt.-% intradermal, 20 min after application
[6] = 0.3 wt.-% intradermal, 2 min after application
[7] = 0.3 wt.-% intradermal, 5 min after application
[8] = 0.3 wt.-% intradermal, 10 min after application
[9] = 0.3 wt.-% intradermal, 15 min after application
[10] = 0.3 wt.-% intradermal, 20 min after application

## CC[C@@H](c1cccc(O)c1)[C@@H](C)CN(C)C [Tapentadol, (1R,2R)-3-(3-dimethylamino-1-ethyl-2-methyl-propyl)-phenol]
0.05 wt.-% intradermal, 0.1 ml per site, 2 min after application
  Stimuli per twitch response (means ± s.e.m.): 6 ± 3
0.05 wt.-% intradermal, 5 min after application
  Stimuli per twitch response (means ± s.e.m.): 1
0.05 wt.-% intradermal, 10 min after application
  Stimuli per twitch response (means ± s.e.m.): 1
0.05 wt.-% intradermal, 15 min after application
  Stimuli per twitch response (means ± s.e.m.): 1
0.05 wt.-% intradermal, 20 min after application
  Stimuli per twitch response (means ± s.e.m.): 1
0.05 wt.-% intradermal
  number of animals with abrogated twitch response (max. effect): 1 of 7
[1]
  Stimuli per twitch response (means ± s.e.m.): 12 ± 4
[2]
  Stimuli per twitch response (means ± s.e.m.): 2 ± 1
[3]
  Stimuli per twitch response (means ± s.e.m.): 1
[4]
  Stimuli per twitch response (means ± s.e.m.): 1
[5]
  Stimuli per twitch response (means ± s.e.m.): 1
0.1 wt.-% intradermal
  number of animals with abrogated twitch response (max. effect): 3 of 6
[6]
  Stimuli per twitch response (means ± s.e.m.): 20
[7]
  Stimuli per twitch response (means ± s.e.m.): 20
[8]
  Stimuli per twitch response (means ± s.e.m.): 4 ± 3
[9]
  Stimuli per twitch response (means ± s.e.m.): 2 ± 1
[10]
  Stimuli per twitch response (means ± s.e.m.): 1
0.3 wt.-% intradermal
  number of animals with abrogated twitch response (max. effect): 7 of 7
0.5 wt.-% intradermal, 2 min after application
  Stimuli per twitch response (means ± s.e.m.): 20
0.5 wt.-% intradermal, 5 min after application
  Stimuli per twitch response (means ± s.e.m.): 20
0.5 wt.-% intradermal, 10 min after application
  Stimuli per twitch response (means ± s.e.m.): 10 ± 3
0.5 wt.-% intradermal, 15 min after application
  Stimuli per twitch response (means ± s.e.m.): 3 ± 2
0.5 wt.-% intradermal, 20 min after application
  Stimuli per twitch response (means ± s.e.m.): 1
0.5 wt.-% intradermal
  number of animals with abrogated twitch response (max. effect): 7 of 7
intradermal, 0.05 to 0.5%
  time of maximum effect after application: 2 min
intradermal, up to the highest concentration (0.5%)
  local anesthetic effect at 20 min after application: completely disappeared

## COc1cccc(C2(O)CCCCC2CN(C)C)c1 (centres unmarked) [Tramadol]
[1]
  Stimuli per twitch response (means ± s.e.m.): 1
[2]
  Stimuli per twitch response (means ± s.e.m.): 1
[3]
  Stimuli per twitch response (means ± s.e.m.): 1
[4]
  Stimuli per twitch response (means ± s.e.m.): 1
[5]
  Stimuli per twitch response (means ± s.e.m.): 1
[6]
  Stimuli per twitch response (means ± s.e.m.): 8 ± 3
[7]
  Stimuli per twitch response (means ± s.e.m.): 6 ± 3
[8]
  Stimuli per twitch response (means ± s.e.m.): 3 ± 2
[9]
  Stimuli per twitch response (means ± s.e.m.): 3 ± 2
[10]
  Stimuli per twitch response (means ± s.e.m.): 3 ± 2
1.0 wt.-% intradermal, 2 min after application
  Stimuli per twitch response (means ± s.e.m.): 20
1.0 wt.-% intradermal, 5 min after application
  Stimuli per twitch response (means ± s.e.m.): 20
1.0 wt.-% intradermal, 10 min after application
  Stimuli per twitch response (means ± s.e.m.): 20
1.0 wt.-% intradermal, 15 min after application
  Stimuli per twitch response (means ± s.e.m.): 15 ± 3
1.0 wt.-% intradermal, 20 min after application
  Stimuli per twitch response (means ± s.e.m.): 14 ± 3
